Tested on: JE
Experiment: JE chemokine level in plasma of treated mice by ELISA
Assay type: in vivo
Details: bolus protein, each of three doses
Protocol: FIG. 7 illustrates induction levels of IP-10 (A) and JE (B) following i.v. or i.m. injection of murine IFN-β protein. C57BL/6 mice were administered 15, 150, or 500 ng of purified recombinant mIFN-β protein (specific activity=2.0×10^8 units/mg) by either i.v. (via tail vein) or i.m. injection (n=3 mice per group). The mice were bled at 2, 4, 6, 12, 24, and 48 hours post-injection, and the plasma levels of IP-10 and JE were measured by ELISA (R&D Systems).
FIG. 19 illustrates IP-10 and JE induction with a pBRES mIFN-β regulated expression system of the present invention.
• A. Development of mIFN-β Biomarkers: For higher sensitivity in detection of murine IFN-β (mIFN-β) activity in vivo, biomarkers for mIFN-β activity were identified in mice after injection of mIFN-β protein or mIFN-β encoded gene therapy vectors. […] In the present study, the expression of the MxA mouse homologue, Mx1, (see e.g., Hug, H et al. Mol Cell Biol 8: 3065-79; Pavlovic, J (1993) Ciba Found Symp 176: 233-43) isolated from murine peripheral blood monocytes (PBMC's) was used to detect the presence of biologically active mIFN-β. • A quantitative PCR/RT-PCR assay was developed to quantitate the levels of Mx1 mRNA in murine PBMC's. […] The samples were analyzed with an Mx1-specific probe/primer combination. […] The highest Mx1 expression levels were measured 2 hours after injection. […]

mIFN-β: purified recombinant murine interferon-beta protein
time by which plasma JE dropped to background: ≤ 24 h

Source: US20080076729A1, “Interferon-beta gene therapy using an improved, regulated expression system” (Schering Aktiengesellachaft, priority 2005, published 2008)
